Source: patent US20090186810A1, “POTASSIUM CHANNEL MODULATORS AND PLATELET PROCOAGULANT ACTIVITY” (priority 2006, published 2009)
“Also recorded” adds a separate entry of the source. Read-outs that look alike come from different tables or passages of the source.

How the values were obtained:
Format in all cases: cell-based, human
[1] = tested on: platelets, tetracaine-induced PS exposure; assay: Tetracaine-induced binding of FITC-conjugated annexin A5
[2] = tested on: platelets, collagen plus thrombin induced aggregation; assay: Platelet aggregation (Chronolog aggregometer)
Experimental: (§1) Aggregation was measured at 37° C. in 450 μL samples of a platelet suspension of 2×10^8/mL using an automated model 400 Chronolog aggregometer (Chronolog Corporation, Chicago, USA). After stirring for 2 minutes at 300 rpm, CaCl2 (3 mmol/L) was added, 1 minute later followed by simultaneous addition of 10 μg/mL collagen and 4 nmol/L thrombin. The resulting aggregation was recorded for 5 minutes after which 50 μL ATP-reagent (Boehringer Mannheim ATP Bioluminescence Assay Kit HS II) was added to quantify the release reaction.

[3] = tested on: collagen plus thrombin activated platelets; assay: Measurement of [Ca2+]i of Fura-2-loaded platelets in suspension
Experimental: (§2) Platelet isolation was performed as described.^10 Briefly, 10 milliliters (mL) blood was collected in 2 mL anticoagulant ACD (80 mmol/L trisodium citrate, 52 mmol/L citric acid and 180 mmol/L glucose). Platelet rich plasma was obtained by centrifuging whole blood for 15 minutes at 200 g. Platelets were spun down at 11,500× gravity for 2 minutes using a microfuge. The platelet pellet was resuspended and washed twice with 10 mmol/L HEPES, 137 mmol/L NaCl, 2.7 mmol/L KCl, 2 mmol/L MgCl2, 5 mmol/L glucose and 0.5 mg/mL BSA, adjusted at pH 6.6); before each centrifugation step, 100 μL ACD was added to each mL resuspended platelets. Finally, platelets were resuspended in HEPES buffer at pH 7.4. Platelet count was adjusted at 2×10^8 platelets/mL. For measurement of the intracellular Ca^2+ concentration ([Ca^2+]i), platelets were loaded with Fura-2 (3 μmol/L) during 45 minutes at 37° C., prior to isolation.
Platelets (5×10^7/mL) were incubated with K^+ channel inhibitors for 5 minutes, followed by the addition of tirofiban (5 μg/mL) and Ca^2+ (3 mmol/L) and incubated for an additional 5 minutes under stirring conditions. Collagen (10 μg/mL) plus thrombin (5 nmol/L) were then added simultaneously. Changes in [Ca^2+]i of Fura-2-loaded platelets were measured under continuous stirring by dual excitation fluorometry in an SLM-Aminco 8100 spectrofluorimeter (SLM Instruments). Ratio values of fluorescence at 340 and 380 nm excitation, obtained 5 minutes after activation with collagen plus thrombin, were converted to levels of [Ca^2+]i as described.^14 Experiments were performed in triplicate at 37° C.

[4] = tested on: platelets, tetracaine-induced PS exposure; assay: Tetracaine-induced prothrombinase activity
[5] = tested on: collagen plus thrombin activated platelets; assay: Flow cytometry, binding of FITC-conjugated annexin A5 (PS exposure)
Experimental: as §2
Platelet activation was performed at 37° C. at a concentration of 10^7 platelets/mL in a volume of 0.5 mL under continuous stirring in the presence of 3 mmol/L CaCl2. Platelet agonists used were thrombin (5 nmol/L) plus collagen (10 μg/mL) or ionomycin (1 μmol/L). […]
Samples for flow cytometry were taken simultaneously with samples for the prothrombinase assay from the platelet incubations after 10 minutes activation. To measure PS exposure, samples were diluted 10-fold in HEPES buffer containing 3 mmol/L CaCl2 and incubated with FITC-conjugated Annexin A5 (final concentration 10 nmol/L) for 5 minutes and analyzed for light scatter and fluorescence by a Coulter Epics XL-MLC™ flow cytometer. Light scatter and fluorescence channels were set at logarithmic gain. Scatter parameters and fluorescence intensities were obtained from 10,000 platelets and analyzed off-line using WinMDI version 2.8 software (http://facs.scripps.edu/software.html). Ionomycin activated platelets were used to set a marker for fluorescence intensity of annexin-positive platelets to measure the percentage of annexin-positive platelets after the various incubation procedures. […]

[6] = tested on: platelets, collagen plus thrombin induced release of ATP; assay: Platelet release reaction (ATP bioluminescence)
Experimental: as §1

[7] = tested on: collagen and thrombin activated platelets; assay: cells
Experimental: as §2
Platelet activation was performed at 37° C. at a concentration of 10^7 platelets/mL in a volume of 0.5 mL under continuous stirring in the presence of 3 mmol/L CaCl2. Platelet agonists used were thrombin (5 nmol/L) plus collagen (10 μg/mL) or ionomycin (1 μmol/L). The effect of different inhibitors was studied by pre-treatment of platelets with the various agents for 30 minutes before starting the activation procedure. For the effects of high extracellular [K^+], platelet suspensions were diluted 20-fold to a concentration of […] in a modified HEPES buffer, referred to as HEPES/KCl buffer (10 mmol/L HEPES, 19.7 mmol/L NaCl, 120 mmol/L KCl, 2 mmol/L MgCl2, 5 mmol/L glucose and 0.5 mg/mL BSA, pH 7.4), activated and assayed for thrombin generation as described before. In some experiments, HEPES buffer was used in which 120 mmol/L NaCl was replaced by 120 mmol/L choline chloride (10 mmol/L HEPES, 17 mmol/L NaCl, 120 mmol/L choline chloride, 2.7 mmol/L KCl, 2 mmol/L MgCl2, 5 mmol/L glucose and 0.5 mg/mL BSA, pH 7.4), referred to as HEPES/Choline buffer.
(§3) Platelet procoagulant activity was assayed as described in more detail elsewhere.^9 Briefly, after activation of 10^7 platelets/mL with collagen (10 μg/mL) and thrombin (4 nmol/L) for 10 minutes, samples were taken and diluted to 10^6 platelets/mL in HEPES buffer containing 3 mmol/L CaCl2 and 0.5 mg/mL BSA. The samples were incubated with 0.2 nmol/L factor Xa and 2 nmol/L factor Va for 1 minute at 37° C. Thrombin formation was initiated by addition of 1 μmol/L prothrombin and arrested after 2 minutes by addition of 10 mmol/L EDTA. Thrombin was measured using the chromogenic substrate S2238.
FIG. 2. illustrates the effect of potassium channel inhibitors on collagen plus thrombin induced platelet procoagulant activity. Platelets at 10^7 ml^−1 were preincubated with various inhibitors for 30 minutes followed by activation with collagen (10 μg/ml) plus thrombin (4 nmol/L) for 10 minutes. Samples from these incubations were diluted 10-fold in HEPES buffer containing 3 mmol/L CaCl2 and subsequently analyzed for prothrombinase activity (A) or percentage of annexin-positive cells (B) as described in the Materials and Methods section above. Valinomycin was added 5 minutes prior to activation of the platelets (to avoid long term effects of this ionophore). Black bars: absence of valinomycin; hatched bars: presence of valinomycin. […] Student's t-test was used to compare data in the presence and absence of valinomycin.

[8] = tested on: platelets from a patient with Scott syndrome; assay: Prothrombinase activity of platelets from a patient with Scott syndrome; settings: valinomycin 3 μmol/L; collagen plus thrombin stimulation; FIG. 5
Experimental: For experiments with platelets from a patient with Scott syndrome, freshly obtained citrated blood from the patient and a control was shipped by airmail and platelets were isolated and used for experiments immediately upon arrival (approx 24 hours after blood donation).
as §3
In FIG. 5, the effect of valinomycin on collagen plus thrombin induced procoagulant activity of platelets from a patient with Scott syndrome is shown. Prothrombinase activities, expressed as nmol/L thrombin formed per minute, were determined after activation with collagen (10 μg/ml) plus thrombin (4 nmol/L) in the absence (black bars) and presence (hatched bars) of valinomycin (3 μmol/L). Data are mean values±1 S.D. (n=6).

[9] = collagen 10 μg/mL plus thrombin 4 nmol/L, concentration as given in row

Compound: Clc1ccccc1C(c1ccccc1)(c1ccccc1)n1ccnc1 [clotrimazol, 1-[(2-chlorophenyl)diphenylmethyl]-1H-imidazole]
- inhibition of tetracaine-induced binding of FITC-conjugated annexin A5 [1]: neither clotrimazol nor charybdotoxin could inhibit
- Aggregation % of control (±S.D.) [2]: 90.0 ± 2.8 % of control
- effect on aggregation or release, in words ([2]; collagen plus thrombin induced, aggregation and ATP release together): Neither high extracellular [K^+], nor the presence of clotrimazol or charybdotoxin showed an appreciable effect
- Δ[Ca2+]i ([3]; 5 minutes after stimulation with collagen plus thrombin, clotrimazol 10 μmol/L, charybdotoxin 20 nmol/L, control 364±18): 275 ± 10 nmol/L
- reduction of the increase in [Ca2+]i versus absence of inhibitors ([3]; clotrimazol 10 μmol/L): 24%
- inhibition of tetracaine-induced prothrombinase activity [4]: neither clotrimazol nor charybdotoxin could inhibit
- extent of annexin binding (mean fluorescence intensity) of the residual PS positive platelets [5]: remains at the same level
- number of PS-exposing (annexin-positive) platelets [5]: decreased
- Release (ATP) % of control (±S.D.) [6]: 91.3 ± 5.0 % of control
- inhibition at 10 µM ([7]; Homo sapiens, Platelet, read-out: inhibition of the prothrombinase activity of collagen and thrombin activated platelets): 46 ± 13%

Compound: C=C[C@H]1CN2CC[C@H]1C[C@H]2[C@H](O)c1ccnc2ccc(OC)cc12.Cl [quinine, quinine hydrochloride]
- Aggregation % of control (±S.D.) [2, 9]: 40.0 ± 3.0 % of control
- inhibition of the aggregation ([2]; collagen plus thrombin induced): approximately 60%
- Release (ATP) % of control (±S.D.) [6, 9]: 90.1 ± 4.1 % of control
- effect on the release, in words ([6]; collagen plus thrombin induced): only a minor effect

Compound: CC(C)[C@@H]1NC(=O)[C@H](C)OC(=O)[C@@H](C(C)C)NC(=O)[C@@H](C(C)C)OC(=O)[C@H](C(C)C)NC(=O)[C@H](C)OC(=O)[C@@H](C(C)C)NC(=O)[C@@H](C(C)C)OC(=O)[C@H](C(C)C)NC(=O)[C@H](C)OC(=O)[C@@H](C(C)C)NC(=O)[C@@H](C(C)C)OC1=O [valinomycin]
- Δ[Ca2+]i with valinomycin in clotrimazol-preincubated platelets ([3]; clotrimazol 10 μmol/L plus valinomycin, 5 minutes after collagen plus thrombin): 326 ± 34 nmol/L
- reversal of the inhibition by clotrimazol and charybdotoxin in HEPES/Choline ([5]; presence of valinomycin, HEPES/Choline buffer, annexin A5 binding, FIG. 4): virtually annihilated
- procoagulant response (prothrombinase activity) of Scott syndrome platelets, in words [8]: significant increase; also recorded: partially restored
- reversal of the inhibition of the procoagulant response by high extracellular [K+] ([7]; addition of valinomycin, data not shown): not reversed
- reversal of the inhibitory effect of quinine on procoagulant response ([7]; valinomycin 3 μmol/L, HEPES buffer, FIGS. 2A and B): partially abolished
- reversal of the inhibition of procoagulant response caused by clotrimazol and charybdotoxin ([7]; valinomycin 3 μmol/L, HEPES buffer, FIGS. 2A and B (prothrombinase and annexin)): completely reversed
- procoagulant response of platelets in the absence of a stimulus ([7]; valinomycin itself): did not cause a procoagulant response

Compound: iberiotoxin (QFTDVDCSVSKECWSVCKDLFGVDRGKCMGKKCRCYQ; UniProt P24663 1-37, looked up)
- effect on collagen plus thrombin-induced procoagulant (prothrombinase) activity, in words ([7]; iberiotoxin 200 nmol/L, apamin 500 nmol/L): without effect
